From article PMC6117563, “A structurally derived model of subunit‐dependent NMDA receptor function” (The Journal of Physiology, 2018)

Columns and labels:
GluN1/GluN2A receptors = molecular target: T1, GluN1/GluN2A receptors (Rattus norvegicus, UniProt Q00959); experiment: Least squares fitting of kinetic model to macroscopic currents from excised outside‐out patches (1 mM or 3 μM glutamate for 1 s); format: cell-based; settings: macroscopic fit
T1 construct: expressed in transfected cells; host or cells: HEK 293 cells
T1 sequence (Q00959 23-1464, other chains not shown): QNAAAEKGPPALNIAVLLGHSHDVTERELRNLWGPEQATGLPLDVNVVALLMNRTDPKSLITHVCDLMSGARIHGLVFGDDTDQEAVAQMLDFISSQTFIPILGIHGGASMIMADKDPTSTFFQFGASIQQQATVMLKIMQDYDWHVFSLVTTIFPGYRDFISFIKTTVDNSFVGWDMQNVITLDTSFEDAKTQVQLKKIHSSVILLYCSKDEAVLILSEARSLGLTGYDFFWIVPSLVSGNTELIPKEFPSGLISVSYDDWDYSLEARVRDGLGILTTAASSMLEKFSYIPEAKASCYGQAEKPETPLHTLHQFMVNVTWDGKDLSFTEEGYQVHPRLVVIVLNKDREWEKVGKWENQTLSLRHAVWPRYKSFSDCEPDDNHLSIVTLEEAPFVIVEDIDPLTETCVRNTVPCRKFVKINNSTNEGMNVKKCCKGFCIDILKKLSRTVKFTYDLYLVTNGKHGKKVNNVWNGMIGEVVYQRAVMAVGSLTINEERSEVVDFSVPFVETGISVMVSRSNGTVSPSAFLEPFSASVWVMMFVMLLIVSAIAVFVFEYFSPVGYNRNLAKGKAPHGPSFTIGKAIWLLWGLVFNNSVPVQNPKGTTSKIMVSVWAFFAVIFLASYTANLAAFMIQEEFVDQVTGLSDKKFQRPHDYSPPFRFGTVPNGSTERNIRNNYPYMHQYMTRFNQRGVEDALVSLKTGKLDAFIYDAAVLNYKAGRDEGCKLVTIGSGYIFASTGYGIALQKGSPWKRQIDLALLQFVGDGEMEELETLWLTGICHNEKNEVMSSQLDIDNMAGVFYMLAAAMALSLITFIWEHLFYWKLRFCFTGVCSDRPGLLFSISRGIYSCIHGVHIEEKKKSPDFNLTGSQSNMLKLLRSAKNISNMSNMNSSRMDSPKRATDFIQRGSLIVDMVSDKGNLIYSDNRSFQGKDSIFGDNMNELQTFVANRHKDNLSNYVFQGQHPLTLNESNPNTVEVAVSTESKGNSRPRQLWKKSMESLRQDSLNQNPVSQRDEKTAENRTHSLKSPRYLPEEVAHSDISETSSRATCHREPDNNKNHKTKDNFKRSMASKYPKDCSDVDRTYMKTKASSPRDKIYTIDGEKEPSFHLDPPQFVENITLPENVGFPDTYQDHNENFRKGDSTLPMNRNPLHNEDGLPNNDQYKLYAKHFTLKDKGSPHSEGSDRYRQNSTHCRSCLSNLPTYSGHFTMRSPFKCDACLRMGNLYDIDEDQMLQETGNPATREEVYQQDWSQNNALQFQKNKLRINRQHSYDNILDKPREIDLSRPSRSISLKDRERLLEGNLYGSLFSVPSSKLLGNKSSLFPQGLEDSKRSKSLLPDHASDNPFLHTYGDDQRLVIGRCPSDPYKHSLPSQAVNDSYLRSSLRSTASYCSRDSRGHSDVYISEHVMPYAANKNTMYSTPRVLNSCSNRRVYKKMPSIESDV
Procedure: (§1) Cells were transfected using FuGENE 6 (Roche Diagnostics, Basel, Switzerland) with cDNA encoding green fluorescent protein (GFP), wild type GluN1‐1a (GenBank accession numbers U11418 and U08261; hereafter GluN1), and GluN2A (D13211) and GluN2B (U11419) at a ratio of 5:1:1 (GFP:GluN1:GluN2); total cDNA was 0.2 mg ml^−1. All rat NMDA receptor subunit cDNAs were provided by Drs Heinemann (Salk Institute) and Nakanishi (Kyoto University). After transfection, the HEK cells were incubated for 12–24 h (timed to optimize observation of patches with a single active channel) in media supplemented with D,L‐2‐amino‐5‐phosphonovalerate (DL‐AP‐5) and 7‐chlorokynurenic acid (both at 200 μM) prior to patch clamp recordings.

[1] = molecular target: T2, GluN2AC1‐P552R/GluN2BC2 triheteromeric receptors (Rattus norvegicus, UniProt P35439+Q00959+Q00960, A876H/F846L/G856D/H848F/K857R/M851T/M860L/Q845K/V861L); experiment: Whole cell current recordings, ifenprodil block of peak current in transfected HEK cells; format: cell-based; settings: 3 μM ifenprodil; n = 9
T2 construct: expressed in transfected cells; host or cells: HEK 293 cells
T2 sequence (Q00960+Q00959 fused with the stated changes, other chains not shown): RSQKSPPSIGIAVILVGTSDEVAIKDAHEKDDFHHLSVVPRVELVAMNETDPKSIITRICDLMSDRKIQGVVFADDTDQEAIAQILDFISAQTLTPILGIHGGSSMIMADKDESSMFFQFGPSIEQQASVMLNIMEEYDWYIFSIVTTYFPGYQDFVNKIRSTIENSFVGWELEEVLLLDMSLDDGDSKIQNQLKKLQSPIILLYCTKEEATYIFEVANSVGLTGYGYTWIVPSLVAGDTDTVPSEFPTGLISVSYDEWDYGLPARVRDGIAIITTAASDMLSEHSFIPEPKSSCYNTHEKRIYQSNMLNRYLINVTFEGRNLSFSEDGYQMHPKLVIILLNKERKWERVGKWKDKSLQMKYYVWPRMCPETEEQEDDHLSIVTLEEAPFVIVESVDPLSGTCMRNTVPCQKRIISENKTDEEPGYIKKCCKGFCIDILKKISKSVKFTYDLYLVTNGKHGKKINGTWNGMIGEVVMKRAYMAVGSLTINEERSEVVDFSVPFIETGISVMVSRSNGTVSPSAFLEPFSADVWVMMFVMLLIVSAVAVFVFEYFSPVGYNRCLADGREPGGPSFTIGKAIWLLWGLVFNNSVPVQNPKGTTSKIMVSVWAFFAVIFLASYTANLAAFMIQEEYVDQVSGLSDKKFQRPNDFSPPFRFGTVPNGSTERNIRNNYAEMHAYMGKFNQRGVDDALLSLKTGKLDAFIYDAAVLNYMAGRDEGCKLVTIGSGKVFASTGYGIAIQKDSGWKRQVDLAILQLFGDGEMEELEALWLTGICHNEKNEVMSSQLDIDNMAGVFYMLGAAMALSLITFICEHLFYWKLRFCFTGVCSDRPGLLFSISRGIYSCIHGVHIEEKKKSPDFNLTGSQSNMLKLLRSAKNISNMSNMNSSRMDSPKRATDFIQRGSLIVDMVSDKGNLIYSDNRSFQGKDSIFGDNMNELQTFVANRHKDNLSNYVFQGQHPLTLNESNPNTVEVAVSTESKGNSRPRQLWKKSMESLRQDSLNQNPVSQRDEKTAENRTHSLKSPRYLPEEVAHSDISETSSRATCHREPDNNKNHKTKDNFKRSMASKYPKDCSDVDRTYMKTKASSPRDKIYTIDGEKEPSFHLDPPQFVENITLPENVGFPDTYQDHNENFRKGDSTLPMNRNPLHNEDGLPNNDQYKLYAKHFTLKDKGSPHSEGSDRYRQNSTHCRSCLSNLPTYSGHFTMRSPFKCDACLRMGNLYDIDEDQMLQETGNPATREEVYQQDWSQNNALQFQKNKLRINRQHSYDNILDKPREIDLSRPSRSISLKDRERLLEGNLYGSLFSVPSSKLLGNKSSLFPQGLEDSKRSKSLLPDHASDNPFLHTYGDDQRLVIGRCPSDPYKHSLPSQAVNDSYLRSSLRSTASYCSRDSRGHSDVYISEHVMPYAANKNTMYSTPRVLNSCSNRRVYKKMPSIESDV
Procedure: as §1
(§2) All GluN2 cDNAs used for whole cell current recordings encoded a fusion protein containing the GluN2A C‐terminal domain fused to coiled‐coil C1 and C2 peptide tags followed by an endoplasmic reticulum (ER) retention signal fused in frame to the C‐terminal. This allowed control of the stoichiometry of GluN2 in surface receptors, as previously described (Hansen et al. 2014). The vector containing GluN1 also independently expressed GFP and was provided by Dr Kasper Hansen (University of Montana). […]

[2] = system: diheteromeric GluN1/GluN2BC2 receptors; design: method as in Hatton & Paoletti, 2005; Hansen et al. 2014; settings: 3 μM ifenprodil; ref Hatton & Paoletti, 2005; Hansen et al. 2014; cited from earlier work
[3] = molecular target: T3, GluN1/GluN2AC1/GluN2BC2 triheteromeric receptors (Rattus norvegicus, UniProt P35439+Q00959+Q00960, A876H/F846L/G856D/H848F/K857R/M851T/M860L/Q845K/V861L); experiment: Whole cell current recordings, ifenprodil block of peak current response to glutamate plus glycine in transfected HEK cells; format: cell-based; settings: 3 μM ifenprodil
T3 construct: expressed in transfected cells; host or cells: HEK 293 cells
T3 sequence (Q00960+Q00959 fused with the stated changes, other chains not shown): as above
Procedure: as §1, §2

[4] = system: GluN2AC1‐P552R/GluN2BC2‐P553R triheteromeric receptors; experiment: Whole cell current recordings, ifenprodil block of peak current in transfected HEK cells; format: cell-based, rat; settings: 3 μM ifenprodil; n = 9
Procedure: as §1, §2

[5] = molecular target: T3, GluN1/GluN2AC1/GluN2BC2 triheteromeric receptors; design: method as in Hatton & Paoletti, 2005; Hansen et al. 2014; settings: 3 μM ifenprodil; ref Hatton & Paoletti, 2005; Hansen et al. 2014; cited from earlier work
[6] = model of Fig. A2 (opening only after all four pre‐gating steps)
[7] = model of Figs 5 and 6, saturating glycine (100 μM), pH 8.0

| Structure (SMILES) | glutamate association rate k +A (GluN1/GluN2A receptors; [6]) [M⁻¹ s⁻¹] | glutamate dissociation rate k −A (GluN1/GluN2A receptors; [6]) [s⁻¹] | glutamate dissociation rate k −A (GluN1/GluN2A receptors; [7]) [s⁻¹] | microscopic glutamate association rate k +A (GluN1/GluN2A receptors; [7]) [M⁻¹ s⁻¹] | reduction of peak current [1] [%] | expected reduction of peak current [2] [%] | block of the current amplitude [3] [%] | reduction of peak current [4] [%] | expected reduction of triheteromeric peak current [5] [%] |
| --- | --- | --- | --- | --- | --- | --- | --- | --- | --- |
| N[C@@H](CCC(=O)O)C(=O)O [glutamate] | 1.3e+07 | 483 | 65 | 6.7e+06 | – | – | – | – | – |
| CC(C(O)c1ccc(O)cc1)N1CCC(Cc2ccccc2)CC1 (stereo not drawn) [ifenprodil] | – | – | – | – | 58 ± 5.5 | ~90 | 38 | 43 ± 6.1 | ~30 |
